# Values of other authors as cited in patent US6447754B1, “Oral rinse methods and compositions” (AkPharma Inc., priority 2000, dated 2002).
# Conditions: in animals; ingestion
substance,measurement,value
"1,2,3-propanetriol, mono(dihydrogen phosphate) calcium salt (1:1) [CGP]",upper limit of CGP which can safely be ingested,greater than 5 grams of CGP per kilogram of body weight
